Reference: patent US5242924A, “Tetrazolyl-(phenoxy and phenoxyalkyl)-piperidinylpyridazines as antiviral agents” (Sterling Winthrop Inc., priority 1992, dated 1993)
≈ marks a conversion by molar mass, not a printed value.

System: human rhinovirus (HRV) serotypes HRV-2, -1A, 1B, -6, -14, -21, -22, -15, -25, -30, -50, -67, -89, -86 and -41
Test: standard plaque reduction assay, panel of human rhinovirus serotypes in HeLa (Ohio) cells
Type: cell-based
Details: MIC = 50% plaque reduction, N serotypes: 15 (Ex. 1, 2, 4, 7, 8), 13 (Ex. 3), 2 (Ex. 5, 6); for MIC50 (Rhinovirus): concentration required to inhibit 50% of the tested serotypes; for MIC80 (Rhinovirus): concentration required to inhibit 80% of the tested serotypes
Procedure: The MIC values were determined by a standard plaque reduction assay as follows: HeLa (Ohio) cells in monolayers were infected at a concentration of virus to give approximately 80 plaques per monolayer in the virus control (no drug present). The compound to be tested was serially diluted and included in the agar-medium overlay and in some cases, during the adsorption period as well. The MIC was determined to be that concentration of compound which reduced the number of plaques by 50% with respect to the untreated virus control.
In the standard test procedure, the compounds were tested against a panel of fifteen human rhinovirus (HRV) serotypes, namely HRV-2, -1A, 1B, -6, -14, -21, -22, -15, -25, -30, -50, -67, -89, -86 and -41. The MIC value for each rhinovirus serotype was determined, and the efficacy of each compound was determined in terms of MIC50 and MIC80 values, which is the concentration of the compound required to inhibit 50% and 80%, respectively, of the tested serotypes.
The following Table gives the testing results with the compounds of the invention. The number of serotypes (N) is indicated after the MIC80 figure.

Compound	MIC50 (Rhinovirus)	MIC80 (Rhinovirus)
Cc1ccc(N2CCC(CCOc3c(C)cc(-c4nnn(C)n4)cc3C)CC2)nn1 [Ex. 8]	16.8 µg/mL (≈ 41.3 µM)	0.66 µg/mL (≈ 1.62 µM)
Cc1ccc(N2CCC(Oc3ccc(-c4nnn(C)n4)cc3)CC2)nn1 [Ex. 6]	0.27 µg/mL (≈ 0.768 µM)	0.52 µg/mL (≈ 1.48 µM)
CCCc1ccc(N2CCC(Oc3ccc(-c4nnn(C)n4)cc3)CC2)nn1 [Ex. 3]	15.7 µg/mL (≈ 41.4 µM)	1.82 µg/mL (≈ 4.8 µM)
CCc1ccc(N2CCC(COc3ccc(-c4nnn(C)n4)cc3)CC2)nn1 [Ex. 1]	13.2 µg/mL (≈ 34.7 µM)	0.281 µg/mL (≈ 0.742 µM)
Cc1ccc(N2CCC(CCOc3ccc(-c4nnn(C)n4)cc3)CC2)nn1 [Ex. 7]	6.64 µg/mL (≈ 17.5 µM)	0.04 µg/mL (≈ 0.105 µM)
Cc1ccc(N2CCC(COc3c(C)cc(-c4nnn(C)n4)cc3C)CC2)nn1 [Ex. 4]	20.1 µg/mL (≈ 51.2 µM)	1.48 µg/mL (≈ 3.77 µM)
Cc1ccc(N2CCC(COc3ccc(-c4nnn(C)n4)cc3)CC2)nn1 [Ex. 2]	13.3 µg/mL (≈ 36.5 µM)	0.141 µg/mL (≈ 0.386 µM)
Cc1ccc(N2CCC(Oc3c(C)cc(-c4nnn(C)n4)cc3C)CC2)nn1 [Ex. 5]	0.92 µg/mL (≈ 2.42 µM)	1.8 µg/mL (≈ 4.74 µM)
